From ChEMBL document CHEMBL1152560, “Substituted 2-arylbenzothiazoles as kinase inhibitors: hit-to-lead optimization” (Bioorg Med Chem, 2009)

Tests used:
[1] = molecular target: Serine/threonine-protein kinase PAK 3 (Homo sapiens) (UniProt O75914); assay: Residual activity of PAK3 at 10 uM by microplate scintillation counting
[2] = molecular target: Fibroblast growth factor receptor 1 (Homo sapiens) (UniProt P11362); assay: Residual activity of wild type FGF-R1 at 10 uM by microplate scintillation counting
[3] = molecular target: T1, Protein kinase C epsilon type (Homo sapiens) (UniProt Q02156); assay: Residual activity of PKCepsilon at 10 uM by microplate scintillation counting
T1 sequence (whole entry): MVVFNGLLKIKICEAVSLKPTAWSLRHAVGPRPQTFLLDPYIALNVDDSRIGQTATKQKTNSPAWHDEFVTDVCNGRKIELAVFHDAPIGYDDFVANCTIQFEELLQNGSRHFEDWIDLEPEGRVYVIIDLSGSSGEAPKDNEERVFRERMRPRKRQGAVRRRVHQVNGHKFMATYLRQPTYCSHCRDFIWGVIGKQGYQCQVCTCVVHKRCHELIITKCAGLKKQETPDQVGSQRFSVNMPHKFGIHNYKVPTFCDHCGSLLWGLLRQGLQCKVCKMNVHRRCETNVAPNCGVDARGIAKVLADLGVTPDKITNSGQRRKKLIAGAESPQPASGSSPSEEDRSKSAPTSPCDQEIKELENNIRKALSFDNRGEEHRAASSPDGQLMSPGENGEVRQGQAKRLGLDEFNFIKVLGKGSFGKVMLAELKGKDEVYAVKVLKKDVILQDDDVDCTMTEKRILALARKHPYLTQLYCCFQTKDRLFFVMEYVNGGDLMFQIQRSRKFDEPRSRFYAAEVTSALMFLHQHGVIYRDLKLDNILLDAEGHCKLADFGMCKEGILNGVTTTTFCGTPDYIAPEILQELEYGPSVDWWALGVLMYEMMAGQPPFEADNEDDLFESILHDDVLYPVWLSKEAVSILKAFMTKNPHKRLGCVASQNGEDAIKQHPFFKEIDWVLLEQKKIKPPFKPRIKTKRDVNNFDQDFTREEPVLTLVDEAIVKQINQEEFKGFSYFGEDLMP

[4] = molecular target: High affinity nerve growth factor receptor (Homo sapiens) (UniProt P04629); assay: Residual activity of TRK-A at 0.1 uM by microplate scintillation counting
High affinity nerve growth factor receptor (Homo sapiens), sequence (P04629 33-796 limits assumed): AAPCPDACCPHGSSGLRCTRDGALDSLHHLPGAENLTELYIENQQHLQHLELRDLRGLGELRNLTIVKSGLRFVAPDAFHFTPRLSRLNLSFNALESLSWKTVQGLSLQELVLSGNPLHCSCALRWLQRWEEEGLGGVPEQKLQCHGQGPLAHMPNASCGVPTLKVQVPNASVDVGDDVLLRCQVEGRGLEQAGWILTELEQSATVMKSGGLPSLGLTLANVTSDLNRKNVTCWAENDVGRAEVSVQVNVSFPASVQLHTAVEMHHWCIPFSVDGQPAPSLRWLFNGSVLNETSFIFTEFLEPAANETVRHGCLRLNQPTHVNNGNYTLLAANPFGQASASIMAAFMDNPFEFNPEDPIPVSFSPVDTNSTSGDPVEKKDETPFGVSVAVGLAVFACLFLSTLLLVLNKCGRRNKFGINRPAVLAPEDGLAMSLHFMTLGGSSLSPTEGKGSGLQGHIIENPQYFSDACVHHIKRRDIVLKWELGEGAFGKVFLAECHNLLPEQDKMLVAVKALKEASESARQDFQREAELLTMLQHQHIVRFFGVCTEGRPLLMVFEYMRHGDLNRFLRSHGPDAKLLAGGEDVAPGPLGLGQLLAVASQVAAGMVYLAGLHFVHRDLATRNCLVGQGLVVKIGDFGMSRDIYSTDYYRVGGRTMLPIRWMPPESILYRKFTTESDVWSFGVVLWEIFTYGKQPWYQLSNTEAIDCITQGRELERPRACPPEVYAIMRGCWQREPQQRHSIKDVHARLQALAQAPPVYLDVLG

[5] = molecular target: Calcium/calmodulin-dependent protein kinase type 1D (Homo sapiens) (UniProt Q8IU85); assay: Residual activity of CAMK1D at 1 uM by microplate scintillation counting
Calcium/calmodulin-dependent protein kinase type 1D (Homo sapiens), sequence (Q8IU85 whole entry, looked up): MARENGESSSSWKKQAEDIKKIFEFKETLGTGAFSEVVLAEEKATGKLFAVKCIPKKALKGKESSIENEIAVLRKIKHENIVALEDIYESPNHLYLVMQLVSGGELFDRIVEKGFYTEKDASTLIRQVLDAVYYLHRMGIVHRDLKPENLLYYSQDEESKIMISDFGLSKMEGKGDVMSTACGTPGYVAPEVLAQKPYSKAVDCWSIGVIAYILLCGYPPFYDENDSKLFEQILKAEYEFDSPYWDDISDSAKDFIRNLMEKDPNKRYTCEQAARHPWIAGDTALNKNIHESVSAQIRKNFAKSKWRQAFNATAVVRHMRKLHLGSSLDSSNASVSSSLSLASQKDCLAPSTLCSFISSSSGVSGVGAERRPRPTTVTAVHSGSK

[6] = molecular target: Protein-tyrosine kinase 6 (Homo sapiens) (UniProt Q13882); assay: Residual activity of BRK at 10 uM by microplate scintillation counting
Protein-tyrosine kinase 6 (Homo sapiens), sequence (Q13882 whole entry, looked up): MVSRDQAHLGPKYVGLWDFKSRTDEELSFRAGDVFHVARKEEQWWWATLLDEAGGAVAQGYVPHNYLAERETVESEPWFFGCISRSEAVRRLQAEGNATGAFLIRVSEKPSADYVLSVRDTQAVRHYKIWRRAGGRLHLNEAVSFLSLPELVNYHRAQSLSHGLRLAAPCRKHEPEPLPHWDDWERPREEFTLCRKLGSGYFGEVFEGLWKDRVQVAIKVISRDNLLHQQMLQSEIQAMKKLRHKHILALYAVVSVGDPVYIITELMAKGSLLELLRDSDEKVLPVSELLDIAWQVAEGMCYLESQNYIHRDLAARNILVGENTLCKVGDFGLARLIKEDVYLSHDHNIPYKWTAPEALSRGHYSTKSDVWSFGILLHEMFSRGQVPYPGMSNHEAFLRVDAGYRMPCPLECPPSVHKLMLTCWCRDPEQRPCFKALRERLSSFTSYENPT

[7] = molecular target: Ribosomal protein S6 kinase alpha-3 (Homo sapiens) (UniProt P51812); assay: Residual activity of RPS6KA3 at 10 uM by microplate scintillation counting
Ribosomal protein S6 kinase alpha-3 (Homo sapiens), sequence (P51812 whole entry): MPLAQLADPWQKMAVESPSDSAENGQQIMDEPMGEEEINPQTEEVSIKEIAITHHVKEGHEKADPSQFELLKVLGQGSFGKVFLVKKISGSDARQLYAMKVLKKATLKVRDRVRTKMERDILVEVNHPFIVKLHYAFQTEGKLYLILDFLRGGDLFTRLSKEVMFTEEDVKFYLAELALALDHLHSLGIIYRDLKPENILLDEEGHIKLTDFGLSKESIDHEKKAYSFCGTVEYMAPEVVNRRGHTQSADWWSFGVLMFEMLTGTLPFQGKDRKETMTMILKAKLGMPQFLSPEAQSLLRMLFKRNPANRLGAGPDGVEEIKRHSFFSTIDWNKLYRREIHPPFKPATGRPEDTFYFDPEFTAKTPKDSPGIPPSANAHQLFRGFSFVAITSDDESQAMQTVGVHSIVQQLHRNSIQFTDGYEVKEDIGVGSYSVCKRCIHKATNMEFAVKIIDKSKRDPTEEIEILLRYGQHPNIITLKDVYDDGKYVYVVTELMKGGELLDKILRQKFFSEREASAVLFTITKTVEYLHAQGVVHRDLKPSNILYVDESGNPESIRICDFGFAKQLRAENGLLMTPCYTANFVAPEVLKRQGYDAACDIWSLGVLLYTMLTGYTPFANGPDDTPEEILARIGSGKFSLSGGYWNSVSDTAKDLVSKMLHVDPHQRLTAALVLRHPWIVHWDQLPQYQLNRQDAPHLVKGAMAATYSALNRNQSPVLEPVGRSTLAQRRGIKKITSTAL

[8] = molecular target: ALK tyrosine kinase receptor (Homo sapiens) (UniProt Q9UM73); assay: Residual activity of ALK at 10 uM by microplate scintillation counting
ALK tyrosine kinase receptor (Homo sapiens), sequence (Q9UM73 19-1620 limits assumed): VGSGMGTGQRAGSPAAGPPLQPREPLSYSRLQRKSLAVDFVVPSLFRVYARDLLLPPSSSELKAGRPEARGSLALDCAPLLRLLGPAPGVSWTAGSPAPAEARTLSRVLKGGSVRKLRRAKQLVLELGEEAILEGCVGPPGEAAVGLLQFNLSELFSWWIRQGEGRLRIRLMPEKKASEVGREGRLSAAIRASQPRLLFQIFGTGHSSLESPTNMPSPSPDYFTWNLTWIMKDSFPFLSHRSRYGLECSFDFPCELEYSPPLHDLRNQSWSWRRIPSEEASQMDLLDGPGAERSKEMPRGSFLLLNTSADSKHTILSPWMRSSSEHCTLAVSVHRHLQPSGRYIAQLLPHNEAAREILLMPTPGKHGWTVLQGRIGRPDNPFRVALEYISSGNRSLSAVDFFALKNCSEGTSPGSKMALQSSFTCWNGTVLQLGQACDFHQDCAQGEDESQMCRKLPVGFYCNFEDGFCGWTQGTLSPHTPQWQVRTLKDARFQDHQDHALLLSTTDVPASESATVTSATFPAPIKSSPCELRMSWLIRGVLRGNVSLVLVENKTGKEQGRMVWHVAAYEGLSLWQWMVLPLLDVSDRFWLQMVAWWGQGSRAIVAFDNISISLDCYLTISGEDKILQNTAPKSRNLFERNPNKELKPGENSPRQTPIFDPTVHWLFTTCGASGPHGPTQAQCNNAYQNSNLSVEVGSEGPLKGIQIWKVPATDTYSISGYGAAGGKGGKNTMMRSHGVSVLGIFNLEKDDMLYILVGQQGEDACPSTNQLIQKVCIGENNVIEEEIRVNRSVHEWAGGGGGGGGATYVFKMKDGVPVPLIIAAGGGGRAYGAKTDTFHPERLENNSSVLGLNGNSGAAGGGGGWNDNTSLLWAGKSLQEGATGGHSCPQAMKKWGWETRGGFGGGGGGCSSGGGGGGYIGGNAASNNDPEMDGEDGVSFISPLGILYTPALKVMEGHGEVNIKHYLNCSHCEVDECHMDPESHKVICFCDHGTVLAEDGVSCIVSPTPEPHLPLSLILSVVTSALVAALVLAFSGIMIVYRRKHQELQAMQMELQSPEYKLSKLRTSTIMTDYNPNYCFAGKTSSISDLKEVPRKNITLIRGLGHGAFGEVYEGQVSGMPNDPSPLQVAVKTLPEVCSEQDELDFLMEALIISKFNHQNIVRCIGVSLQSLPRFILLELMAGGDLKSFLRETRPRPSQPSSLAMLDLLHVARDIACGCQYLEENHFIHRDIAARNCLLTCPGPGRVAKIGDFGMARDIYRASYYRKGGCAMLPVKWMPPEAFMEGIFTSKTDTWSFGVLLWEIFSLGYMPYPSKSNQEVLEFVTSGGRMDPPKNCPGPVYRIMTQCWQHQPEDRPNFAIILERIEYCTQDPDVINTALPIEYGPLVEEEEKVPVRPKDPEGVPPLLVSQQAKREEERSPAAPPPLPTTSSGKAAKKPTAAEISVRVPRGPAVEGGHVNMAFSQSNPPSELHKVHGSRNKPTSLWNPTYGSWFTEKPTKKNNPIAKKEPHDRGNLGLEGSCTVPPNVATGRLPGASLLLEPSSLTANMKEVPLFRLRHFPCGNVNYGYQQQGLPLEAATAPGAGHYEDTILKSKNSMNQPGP

[9] = test system: T2, Dual specificity mitogen-activated protein kinase kinase 6 (Homo sapiens), P52564 [S207D,T211D]; assay: Residual activity of MKK6 S207D/T211D mutant at 10 uM by microplate scintillation counting
T2 sequence (whole entry): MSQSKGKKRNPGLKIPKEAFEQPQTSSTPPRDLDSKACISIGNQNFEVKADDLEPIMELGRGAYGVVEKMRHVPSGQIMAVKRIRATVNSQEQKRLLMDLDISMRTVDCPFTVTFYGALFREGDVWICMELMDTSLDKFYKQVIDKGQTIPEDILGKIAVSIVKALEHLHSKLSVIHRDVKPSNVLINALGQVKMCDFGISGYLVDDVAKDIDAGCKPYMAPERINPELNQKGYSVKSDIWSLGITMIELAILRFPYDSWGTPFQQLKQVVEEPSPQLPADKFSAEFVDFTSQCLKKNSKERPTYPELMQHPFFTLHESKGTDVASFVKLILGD

[10] = molecular target: T3, cGMP-dependent protein kinase 2 (Homo sapiens) (UniProt Q13237); assay: Residual activity of PRKG2 at 10 uM by microplate scintillation counting
T3 sequence (whole entry): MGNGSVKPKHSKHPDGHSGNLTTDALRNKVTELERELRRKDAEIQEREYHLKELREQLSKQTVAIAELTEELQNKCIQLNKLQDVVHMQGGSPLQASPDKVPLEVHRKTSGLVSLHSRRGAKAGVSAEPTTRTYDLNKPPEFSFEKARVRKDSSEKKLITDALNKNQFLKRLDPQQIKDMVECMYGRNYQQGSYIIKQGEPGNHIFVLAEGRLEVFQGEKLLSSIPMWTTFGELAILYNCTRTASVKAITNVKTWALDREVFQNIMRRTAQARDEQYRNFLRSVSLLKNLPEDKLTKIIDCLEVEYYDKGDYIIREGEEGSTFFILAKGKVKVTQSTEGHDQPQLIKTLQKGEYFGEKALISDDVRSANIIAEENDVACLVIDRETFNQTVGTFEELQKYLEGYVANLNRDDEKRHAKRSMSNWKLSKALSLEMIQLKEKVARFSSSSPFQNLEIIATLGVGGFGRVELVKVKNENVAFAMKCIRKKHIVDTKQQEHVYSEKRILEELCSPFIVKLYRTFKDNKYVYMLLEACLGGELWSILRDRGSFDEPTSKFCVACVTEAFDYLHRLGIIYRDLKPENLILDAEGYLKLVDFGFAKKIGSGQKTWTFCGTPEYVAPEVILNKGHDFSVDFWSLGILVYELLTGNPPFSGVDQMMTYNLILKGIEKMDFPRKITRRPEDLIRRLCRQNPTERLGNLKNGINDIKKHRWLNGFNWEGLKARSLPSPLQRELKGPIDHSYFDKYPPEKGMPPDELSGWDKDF

[11] = molecular target: Death-associated protein kinase 2 (Homo sapiens) (UniProt Q9UIK4); assay: Residual activity of DAPK2 at 1 uM by microplate scintillation counting
Death-associated protein kinase 2 (Homo sapiens), sequence (Q9UIK4 whole entry, looked up): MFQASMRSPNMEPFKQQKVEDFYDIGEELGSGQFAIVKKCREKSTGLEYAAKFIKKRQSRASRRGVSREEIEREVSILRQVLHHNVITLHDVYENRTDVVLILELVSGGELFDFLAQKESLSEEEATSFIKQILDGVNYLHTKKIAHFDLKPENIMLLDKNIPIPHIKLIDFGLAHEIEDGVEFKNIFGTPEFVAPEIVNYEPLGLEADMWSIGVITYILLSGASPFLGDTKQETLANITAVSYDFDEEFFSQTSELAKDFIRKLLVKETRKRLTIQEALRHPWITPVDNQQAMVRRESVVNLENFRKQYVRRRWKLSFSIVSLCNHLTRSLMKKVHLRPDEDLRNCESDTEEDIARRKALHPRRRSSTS

Serine/threonine-protein kinase PAK 3 (Homo sapiens), sequence (O75914 whole entry, looked up): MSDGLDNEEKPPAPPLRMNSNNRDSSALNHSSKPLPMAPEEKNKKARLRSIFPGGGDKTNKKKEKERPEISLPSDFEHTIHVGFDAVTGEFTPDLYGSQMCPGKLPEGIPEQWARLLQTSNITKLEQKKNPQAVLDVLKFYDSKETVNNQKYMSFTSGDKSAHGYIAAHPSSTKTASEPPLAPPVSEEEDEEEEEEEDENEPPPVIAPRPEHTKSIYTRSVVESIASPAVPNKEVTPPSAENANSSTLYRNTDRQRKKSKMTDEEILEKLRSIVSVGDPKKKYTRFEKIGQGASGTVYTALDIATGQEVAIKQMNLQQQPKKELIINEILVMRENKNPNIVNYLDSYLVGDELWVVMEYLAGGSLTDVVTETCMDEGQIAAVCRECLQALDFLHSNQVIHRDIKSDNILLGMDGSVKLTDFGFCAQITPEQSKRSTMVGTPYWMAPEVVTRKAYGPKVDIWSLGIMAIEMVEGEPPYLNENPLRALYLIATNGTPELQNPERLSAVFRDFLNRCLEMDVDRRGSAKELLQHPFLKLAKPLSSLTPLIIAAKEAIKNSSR

Row | residual activity [1] [%] | residual activity [2] [%] | residual activity [3] [%] | residual activity [4] [%] | residual activity [5] [%] | residual activity [6] [%] | residual activity [7] [%] | residual activity [8] [%] | residual activity [9] [%] | residual activity [10] [%] | SMILES | residual activity [11] [%]
1 | 56 | 124 | 142 | 83 | 92 | 0 | 58 | 414 | 148 | 92 | COc1cc2c(Oc3ccc(-c4nc5ccccc5s4)cc3)ncnc2cc1OCCCN1CCCC1 | 92
2 | 43 | 157 | 128 | 104 | 87 | 1 | 50 | 329 | 185 | 119 | COc1cc2c(Oc3ccc(-c4nc5ccccc5s4)cc3)ncnc2cc1OCCCN1CCN(C)CC1 | 79
3 | 39 | 47 | 135 | 88 | 91 | 0 | 36 | 180 | 164 | 96 | COc1cc2c(Oc3ccc(-c4nc5ccccc5s4)cc3F)ncnc2cc1OCCCN1CCN(C)CC1 | 90
